Results from patent publication US20260193254A1, “2-OXOQUINAZOLINE CRYSTALLINE FORMS” (IDEAYA Biosciences, Inc., priority 2022, published 2026).
In brackets after ≈: the same amount, converted by molar mass. Marks after values point to notes of the source that are not given here.

Columns and labels:
Format in all cases: physicochemical
[1] = Equilibrium solubility in FeSSIF and FaSSIF; conditions: 24 hours; for Solubility: target concentration 1 mg/mL, HPLC method 1 or 2 (footnote); for impurity in solubility sample: no unit printed for impurity (column head mg/mL)
Method: (§1) Solid part and liquid part were separated by filtration. Solubility was measured by HPLC. Solid part (wet cake) was investigated by XRPD.

[2] = Behavior under compression; conditions: 2 Mpa/2 min, hydraulic press
Method: XRPD characterization was performed to investigate polymorphic behavior under compression.

[3] = Intrinsic dissolution rate (IDR) evaluation in FaSSIF; conditions: FaSSIF at 37° C.
[4] = Crystallization at room temperature by slow evaporation; conditions: ambient condition
Description: Combined with approximate solubility experiment, solubility samples were filtered by 0.45 μm nylon filter. Obtained solutions were slow evaporated at ambient condition. Solid residues were examined for their polymorphic form.

Water activity study = conditions: protected by kapton film
Description: These solvent mixtures were saturated with the compound of Formula (I) before addition of the polymorph seeds. […] These solvent mixtures were saturated with the compound of Formula (I) before addition of the polymorph seeds. Obtained suspension was filtered. Solid part (wet cake) was investigated by XRPD.

[5] = Bulk stability of crystalline forms; parameters: key: Color A: All No change of color; conditions: Solid state
Description: (§2) Solids obtained after bulk stability study were characterized by XRPD and HPLC.

[6] = Equilibrium solubility in SGF (pH 2.0), 0.1 N HCl (pH 1.2) and phosphate buffer (pH 8.0); conditions: 24 hours; for solubility at 24 h: 37 °C, thermodynamic from solid, target concentration 1 mg/mL, HPLC method 2
Method: as §1

[7] = Bulk stability of crystalline forms; conditions: for Purity, Bulk (HPLC): Solid state
Description: as §2

[8] = Equilibration with solvents at 25° C. for 2 weeks; conditions: equilibration at 25° C. for 2 weeks
Method: Obtained suspension was filtered. The solid part (wet cake) was investigated by XRPD. When differences were observed, additional investigations were performed (e.g. DSC, TGA etc.).

[9] = 25° C./92% RH, open container, 1 week
[10] = 25° C./92% RH, open container, 2 weeks
[11] = 40° C./75% RH, open container, 1 week
[12] = 40° C./75% RH, open container, 2 weeks
[13] = 60° C., tight container, 1 week
[14] = 60° C., tight container, 2 weeks
[15] = pH 8 (phosphate buffer), 37° C.

Nc1nc(=O)n(-c2ccccc2Cl)c2nc(C(F)(F)F)ccc12 [solid state Form V, 4-Amino-1-(2-chlorophenyl)-7-(trifluoromethyl)pyrido[2,3-d]pyrimidin-2(1H)-one]
final pH ([1]; FaSSIF, pH 6.5, 37° C.): 6.5
Solubility ([1]; FaSSIF, pH 6.5, 37° C.): 0.10 mg/mL (≈ 294 µM)
impurity in solubility sample ([1]; FaSSIF, pH 6.5, 37° C.): no impurity
final pH ([1]; FeSSIF, pH 5.0, 37° C.): 5.0
Solubility ([1]; FeSSIF, pH 5.0, 37° C.): 0.26 mg/mL (≈ 763 µM)
impurity in solubility sample ([1]; FeSSIF, pH 5.0, 37° C.): no impurity
XRPD after compression [2]: No form change
XRPD after IDR ([3]; disc surface after 120 min): No form change
Concentration detected during IDR test (Comments) ([3]; for Form V and Form A remains same during the whole process, LOQ for Form T and amorphous form): (0.006 mg/mL)
Crystalline Form formed by slow evaporation ([4]; SE1 Methanol (15 mg/mL)): Solid state Form V
Crystalline Form formed by slow evaporation ([4]; SE2 Ethanol (7 mg/mL)): Form F with low crystalline
Crystalline Form formed by slow evaporation ([4]; SE3 2-Propanol (5 mg/mL)): Form J (IPA solvate)
Crystalline Form formed by slow evaporation ([4]; SE6 Acetone (5 mg/mL)): Form G
Crystalline Form formed by slow evaporation ([4]; SE7 Methyl ethyl ketone (5 mg/mL)): Form G
Crystalline Form formed by slow evaporation ([4]; SE9 Tetrahydrofuran (5 mg/mL)): Form K
Crystalline Form formed by slow evaporation ([4]; SE12 Methanol/Ethyl acetate = 1/1 (v/v) (7 mg/mL)): Solid state Form V
Crystalline Form formed by slow evaporation ([4]; SE13 Methanol/Acetonitrile = 1/1 (v/v) (11 mg/mL)): Solid state Form V
Form obtained in water activity study (XRPD) (Water activity study; AW4 EtOH/water = 0.4/0.6 (v/v) aw = 0.91, 25° C. (4 days)): Form F (protected by kapton film)
Form obtained in water activity study (XRPD) (Water activity study; AW5 EtOH/water = 0.3/0.7 (v/v) aw = 0.93, 25° C. (4 days)): Form F (protected by kapton film)
Form obtained in water activity study (XRPD) (Water activity study; AW6 EtOH/water = 0.2/0.8 (v/v) aw = 0.95, 25° C. (4 days)): Form F (protected by kapton film)^a
Form obtained in water activity study (XRPD) (Water activity study; AW7 EtOH/water = 0.1/0.9 (v/v) aw = 0.97, 25° C. (4 days)): Form E (protected by kapton film)
Form obtained in water activity study (XRPD) (Water activity study; AW8 MeOH aw = 0.0, 25° C. (4 days)): Form C (protected by kapton film)
Form obtained in water activity study (XRPD) (Water activity study; AW9 MeOH/water = 0.970/0.030 (v/v) aw = 0.1, 25° C. (4 days)): Form F (protected by kapton film)
Form obtained in water activity study (XRPD) (Water activity study; AW10 MeOH/water = 0.930/0.070 (v/v) aw = 0.2, 25° C. (4 days)): Form F (protected by kapton film)
Form obtained in water activity study (XRPD) (Water activity study; AW11 MeOH/water = 0.893/0.107 (v/v) aw = 0.3, 25° C. (4 days)): Form F (protected by kapton film)
Form obtained in water activity study (XRPD) (Water activity study; AW12 MeOH/water = 0.775/0.225 (v/v) aw = 0.5, 25° C. (4 days)): Form F (protected by kapton film)
Form obtained in water activity study (XRPD) (Water activity study; AW13 MeOH/water = 0.580/0.420 (v/v) aw = 0.7, 25° C. (4 days)): Form F (protected by kapton film)
Form obtained in water activity study (XRPD) (Water activity study; AW14 MeOH/water = 0.4/0.6 (v/v) aw = 0.81, 25° C. (4 days)): Form E (protected by kapton film)
Form obtained in water activity study (XRPD) (Water activity study; AW15 MeOH/water = 0.3/0.7 (v/v) aw = 0.86, 25° C. (4 days)): Form E (protected by kapton film)
Form obtained in water activity study (XRPD) (Water activity study; AW16 MeOH/water = 0.2/0.8 (v/v) aw = 0.91, 25° C. (4 days)): Form E (protected by kapton film)
Form obtained in water activity study (XRPD) (Water activity study; AW17 MeOH/water = 0.1/0.9 (v/v) aw = 0.96, 25° C. (4 days)): Form E (protected by kapton film)
Form obtained in water activity study (XRPD) (Water activity study; AW18 Water aw = 1.0, 25° C. (4 days)): Form E (protected by kapton film)^b
Color [5, 9]: A
Color [5, 10]: A
Color [5, 11]: A
Color [5, 12]: A
Color [5, 13]: A
Color [5, 14]: A
solubility at 24 h ([6]; 0.1 N HCl, pH 1.2, simulated gastric fluid, pH 1.2 (0.1N HCl)): 150 µg/mL (≈ 440 µM)
final pH ([6]; SGF, pH 2.0, 37° C.): 2.3
final pH ([6]; pH 1.2 (0.1N HCl), 37° C.): 1.3
XRPD of solid after solubility test [6, 15]: Solid state Form V
final pH [6, 15]: 8.0
impurity in solubility sample [6, 15]: no impurity
solubility at 24 h ([6]; phosphate buffer, pH 8, aqueous buffer, pH 8 (phosphate buffer)): 40 µg/mL (≈ 117 µM)
solubility at 24 h ([6]; simulated gastric fluid (SGF), pH 2, simulated gastric fluid, SGF, pH 2.0, 37° C.): 70 µg/mL (≈ 205 µM)
Purity, Bulk (HPLC) [7, 9]: 98.9%
Purity, Bulk (HPLC) [7, 10]: 98.9%
Purity, Bulk (HPLC) [7, 11]: 98.9%
Purity, Bulk (HPLC) [7, 12]: 98.7%
Purity, Bulk (HPLC) [7, 13]: 98.8%
Purity, Bulk (HPLC) [7, 14]: 98.9%
Initial purity ([7]; before stress, HPLC): 98.9%
chemical stability and physical stability (bulk stability) ([7]; stressed under 25° C./92 RH, 40% C/75% RH and 60° C., XRPD and HPLC): good chemical stability and physical stability
Crystalline Form ([8]; Acetone (63 mg/mL)): Form G
Crystalline Form ([8]; Acetone/water = 1/1 (v/v) (63 mg/mL)): Form G
Crystalline Form ([8]; Acetonitrile/water = 1/1 (v/v) (62 mg/mL)): Form A
Crystalline Form ([8]; Ethanol/water = 1/1 (v/v) (64 mg/mL)): Form C (hemi-hydrate)
Crystalline Form ([8]; Methanol (65 mg/mL)): Form C (hemi-hydrate)
Crystalline Form ([8]; Methanol/water = 1/1 (v/v) (64 mg/mL)): Form E (hemi-hydrate)
Crystalline Form ([8]; t-Butyl methyl ether (65 mg/mL)): Form H (MTBE solvate)
Crystalline Form ([8]; t-Butyl methyl ether/water = 95/5(v/v) (63 mg/mL)): Form H (MTBE solvate)
